# Experimental data taken from article PMC6792352, “Limited Chemical Structural Diversity Found to Modulate Thyroid Hormone Receptor in the Tox21 Chemical Library” (Environmental Health Perspectives, 2019).
# Counter-ions that a name gives are not always drawn.
# Test: in vitro
# Settings: rat, gh3-tre-luc cells, AC50 (uM) modified / 1000
row,SMILES,CC50 at 24 h [µM]
1,C=C1[C@H]2CC[C@@H]3[C@H]2C(C)(C)CCC[C@]13C [Longifolene],> 90
2,"FC(F)(F)C(Cl)(Cl)Cl [1,1,1-Trichloro-2,2,2-trifluoroethane]",> 90
3,CN1CCN(C(c2ccccc2)c2ccccc2)CC1 [Cyclizine hydrochloride],> 20
4,CC1COc2c(N3CCN(C)CC3)c(F)cc3c(=O)c(C(=O)O)cn1c23 (stereo not drawn) [Ofloxacin],> 50
5,COCCOC(=O)c1ccccc1C(=O)OCCOC [Di(2-methoxyethyl) phthalate],> 90
6,Cc1onc(-c2ccccc2Cl)c1C(=O)N[C@@H]1C(=O)N2[C@@H]1SC(C)(C)[C@@H]2C(=O)O [Cloxacillin sodium],> 20
7,CN(C)CC/C=C1/c2ccccc2COc2ccc(CC(=O)O)cc21 [Olopatadine hydrochloride],> 50
8,CO/N=C(\C(=O)N[C@@H]1C(=O)N2C(C(=O)O)=C(Cn3nnc(C)n3)CS[C@H]12)c1csc(N)n1 [Cefteram],> 50
9,CC(C)Cc1ccccc1 [Isobutylbenzene],> 90
10,C#C[C@]1(O)CC[C@H]2[C@@H]3CCc4cc(OC5CCCC5)ccc4[C@H]3CC[C@@]21C [Quinestrol],16
11,O=C(Cn1c(=O)sc2ccc(Cl)cc21)N1CCN(CCO)CC1 [Tiaramide hydrochloride],> 50
12,COC(=O)[C@H]1[C@@H](OC(=O)c2ccccc2)C[C@@H]2CC[C@H]1N2C [(-)-Cocaine hydrochloride],> 90
13,CCCc1ccccc1 [Propylbenzene],> 90
14,"O=C(/C=C/c1ccc(O)c(O)c1)O[C@@H]1C[C@](OC(=O)/C=C/c2ccc(O)c(O)c2)(C(=O)O)C[C@@H](O)[C@H]1O [1,5-Dicaffeoylquinic acid]",> 50
15,"CC(=O)C=CC1=C(C)CCCC1(C)C [4-(2,6,6-Trimethyl-cyclohex-1-enyl)-but-3-en-2-one]",> 90
16,Nc1nc(N)c(-c2ccccc2)s1 [Amiphenazole],> 50
17,"C1=COCCC1 [3,4-Dihydro-2H-pyran]",> 90
18,NCCS(=O)(=O)O [l-Taurine],29.5
19,CCCC[n+]1ccccc1 [1-Butylpyridinium hexafluorophosphate],> 90
20,CC1CCc2c(N3CCC(O)CC3)c(F)cc3c(=O)c(C(=O)O)cn1c23 (stereo not drawn) [Nadifloxacin],> 50
21,CCCSP(=O)(OCC)SCCC [Ethoprop],> 90
22,CCOC(=O)/C=C(C)/C=C/C=C(C)/C=C/c1c(C)cc(OC)c(C)c1C [Etretinate],> 50
23,CCCCCCCCCCCCCCCC(=O)NCCO [Palmitoylethanolamide],> 50
24,Nc1nc2c(ncn2COCCO)c(=O)[nH]1 [Acyclovir],> 20
25,O=C(OCc1ccccc1)c1ccccc1O [Benzyl salicylate],> 90

row,SMILES,CC50 at 24 h [µM]
1,OC1OC[C@@H](O)[C@H](O)[C@H]1O (stereo partly drawn) [D-Xylose],> 90
2,COc1nc(N)nc2c1ncn2[C@@H]1O[C@H](CO)[C@@H](O)[C@@H]1O [Nelarabine],> 50
3,CC[C@H](NC(=O)c1cc(F)ccc1NS(=O)(=O)c1cccc2cccnc12)c1ccccc1 [AVE3295],> 90
4,CCNc1nc(Cl)nc(NCC)n1 [Simazine],> 90
5,OC[C@H]1O[C@@H]2O[C@H]3[C@H](O)[C@@H](O)[C@@H](O[C@H]4[C@H](O)[C@@H](O)[C@@H](O[C@H]5[C@H](O)[C@@H](O)[C@@H](O[C@H]6[C@H](O)[C@@H](O)[C@@H](O[C@H]7[C@H](O)[C@@H](O)[C@@H](O[C@H]8[C@H](O)[C@@H](O)[C@@H](O[C@H]1[C@H](O)[C@H]2O)O[C@@H]8CO)O[C@@H]7CO)O[C@@H]6CO)O[C@@H]5CO)O[C@@H]4CO)O[C@@H]3CO [beta-Cyclodextrin],> 90
6,COP(=O)(OC)OC(c1ccc(Cl)cc1)P(=O)(OC)OC (stereo not drawn) [Mifobate],> 50
7,CCCCCCCCC(=O)Cl [Nonanoyl chloride],> 90
8,CC1(C)N=C(N)N=C(N)N1c1ccc(Cl)cc1 [Cycloguanil hydrochloride],> 50
9,N#Cc1sc2c(=O)c3ccccc3c(=O)c=2sc1C#N [Dithianon],29.4
10,CCCCCCOC(=O)C(C)C [Hexyl isobutyrate],> 90
11,C[N+](C)(C)CCOC(=O)C(O)(c1ccccc1)c1ccccc1 [Metocinium iodide],> 50
12,CCOc1ccc(NC(N)=O)cc1 [Dulcin],> 90
13,"O=[N+]([O-])c1cc(Cl)c(Cl)c(Cl)c1Cl [2,3,4,5-Tetrachloronitrobenzene]",89.5
14,COc1ccc(CNCC(O)COc2ccc3[nH]c(=O)ccc3c2)cc1OC (stereo not drawn) [Toborinone],> 50
15,C=CCc1ccc(O)c(OC)c1 [Eugenol],> 90
16,CC(=O)C=Cc1ccco1 [Furfural acetone],> 100
17,CO[C@H]1[C@@H](O)[C@H](N)[C@@H](O[C@H]2O[C@H]([C@H](C)N)CC[C@H]2N)[C@H](O)[C@@H]1N(C)C(=O)CN [Astromicin],> 50
18,"C/C=C/C=C/COC(=O)C(C)C [2,4-Hexadienyl isobutyrate]",75.5
19,Nc1ccc(S(=O)(=O)O)cc1 [Sodium sulfanilate],> 90
20,COc1ccc2cc1Oc1cc3c(cc1OC)CC[N+](C)(C)[C@H]3Cc1ccc(cc1)Oc1c(OC)c(OC)cc3c1[C@@H](C2)[N+](C)(C)CC3 [Metocurine iodide],> 50
21,O=C(NCCc1c[nH]c2ccccc12)c1cccnc1 [Nicotredole],> 50
22,O=C(c1ccccc1)C1CCCCC1 [Cyclohexylphenylketone],> 90
23,"CCCCCCCCCCCCN(C)C [N,N-Dimethyldodecan-1-amine]",> 90
24,Nc1ccc2cc(S(=O)(=O)O)cc(O)c2c1 [6-Amino-4-hydroxynaphthalene-2-sulfonic acid],> 90
25,O=C(NC(=O)c1ccccc1Cl)Nc1ccc(OC(F)(F)F)cc1 [Triflumuron],> 90

row,SMILES,CC50 at 24 h [µM]
1,CCCCC [Pentane],> 90
2,CCNCC(O)c1cccc(O)c1 (stereo not drawn) [Etilefrine hydrochloride],> 20
3,"O=C(O)C1CCC(C(=O)O)CC1 (stereo not drawn) [1,4-Cyclohexanedicarboxylic acid]",> 90
4,NC(=O)OC[C@@H]1[C@H](NC(=O)/C(=N\OCC(=O)O)c2csc(N)n2)C(=O)N1S(=O)(=O)O [Carumonam sodium],> 50
5,CCCC/C=C\CCCCCCCCCC=O [(Z)-11-Hexadecenal],> 90
6,CCCCCCCCCCOc1cc2c(O)c(C(=O)OCC)cnc2cc1OCC [Decoquinate],> 50
7,O=C(NNCNNC(=O)c1ccncc1)c1ccncc1 [Metazide],> 50
8,O=C1C(N(CO)C(=O)NCO)N(CO)C(=O)N1CO (stereo not drawn) [Diazolidinyl urea],> 90
9,N=C(N)NN [Aminoguanidine hydrochloride],> 90
10,Cn1c(=O)c2[nH]cnc2n(C)c1=O [Theophylline],> 90
11,CCN(CC)CC [Triethylamine],> 100
12,O=C(O)CNCC(=O)O [Iminodiacetic acid],> 5
13,"CCCCOC(=O)COc1ccc(Cl)cc1Cl [2,4-D 1-butyl ester]",> 90
14,C[C@H]1C[C@H]2[C@@H]3CCC4=CC(=O)C=C[C@]4(C)[C@@]3(F)[C@@H](O)C[C@]2(C)[C@@]1(O)C(=O)CCl [Clobetasol],> 50
15,"OCC1(CO)COCOC1 [1,3-Dioxane-5,5-diyldimethanol]",> 90
16,NC(=O)/N=N/C(N)=O [Azodicarbonamide],> 90
17,CC(C)(C)OC(=O)N1CC(N)C1 [Lithium sulfate],> 5
18,Fc1cccc(Cl)c1CCl [1-Chloro-2-(chloromethyl)-3-fluorobenzene],> 90
19,CC(=O)N(O)CCCCCNC(=O)CCC(=O)N(O)CCCCCNC(=O)CCC(=O)N(O)CCCCCN [Deferoxamine mesylate],> 20
20,O=C(Nc1ccccc1-c1ccc(Cl)cc1)c1cccnc1Cl [Boscalid],> 100
21,NC(Cc1ccc(F)cc1)C(=O)O (racemic) [4-Fluoro-dl-phenylalanine],2.98
22,CCN1CCC[C@H]1CNC(=O)c1c(O)c(Cl)cc(Cl)c1OC [Raclopride],> 50
23,O=C(Cn1ccnc1[N+](=O)[O-])NCc1ccccc1 [Benznidazole],> 50

# Same assay, conditions: rat, gh3-tre-luc cells, AC50 (uM) modified / 1000, Tox21_110001=Tox21_111116; viability, 1 nM T3 present, 24 h
row,SMILES,CC50 at 24 h [µM]
1,Cc1cc(O)ccc1Cl [4-Chloro-3-methylphenol],> 50

# Same assay, conditions: rat, gh3-tre-luc cells, AC50 (uM) modified / 1000, Tox21_110001=Tox21_112832; viability, 1 nM T3 present, 24 h
row,SMILES,CC50 at 24 h [µM]
1,CCC(=O)OC1(c2ccccc2)CCN(C)CC1 [1-Methyl-4-phenyl-4-propionoxypiperidine hydrochloride],> 100

# Same assay, conditions: rat, gh3-tre-luc cells, AC50 (uM) modified / 1000, Tox21_110001=Tox21_200909; viability, 1 nM T3 present, 24 h
row,SMILES,CC50 at 24 h [µM]
1,"Oc1cccc(Cl)c1Cl [2,3-Dichlorophenol]",> 90

# Same assay, conditions: rat, gh3-tre-luc cells, AC50 (uM) modified / 1000, Tox21_110001=Tox21_201293; viability, 1 nM T3 present, 24 h
row,SMILES,CC50 at 24 h [µM]
1,Cc1cc(O)ccc1Cl [4-Chloro-3-methylphenol],> 90

# Same assay, conditions: rat, gh3-tre-luc cells, AC50 (uM) modified / 1000, Tox21_110001=Tox21_201753; viability, 1 nM T3 present, 24 h
row,SMILES,CC50 at 24 h [µM]
1,CCOC(=O)C(O)(c1ccc(Cl)cc1)c1ccc(Cl)cc1 [Chlorobenzilate],58.2

# Same assay, conditions: rat, gh3-tre-luc cells, AC50 (uM) modified / 1000, Tox21_110001=Tox21_300594; viability, 1 nM T3 present, 24 h
row,SMILES,CC50 at 24 h [µM]
1,CCOC(=O)C(O)(c1ccc(Cl)cc1)c1ccc(Cl)cc1 [Chlorobenzilate],54.6

# Same assay, conditions: rat, gh3-tre-luc cells, AC50 (uM) modified / 1000, Tox21_110001=Tox21_301078; viability, 1 nM T3 present, 24 h
row,SMILES,CC50 at 24 h [µM]
1,COP(=O)(OC)O/C(C)=C/C(=O)N(C)C [Dicrotophos],> 90

# Same assay, conditions: rat, gh3-tre-luc cells, AC50 (uM) modified / 1000, Tox21_110001=Tox21_302319; viability, 1 nM T3 present, 24 h
row,SMILES,CC50 at 24 h [µM]
1,O=S(=O)(O)C(F)(F)C(F)(F)C(F)(F)C(F)(F)C(F)(F)C(F)(F)C(F)(F)C(F)(F)F [Lithium perfluorooctanesulfonate],52.3
